Source: patent US20220088144A1, “SGLT-2 INHIBITORS OR IL-1R ANTAGONISTS FOR REDUCTION OF HYPOGLYCAEMIA AFTER BARIATRIC SURGERY” (UNIVERSITÄTSSPITAL BASEL, priority 2019, published 2022)

Test system: bulk monocytes
Assay: RNA sequencing of monocytes isolated from treated patients
Set-up: species or system human
Conditions: treatment compared to placebo
Experimental: Following the inventors' hypothesis of an overactivation of the innate immune system in patients experiencing post-bariatric hypoglycemia, they assessed transcriptional changes in innate immune cells from the inventors' patient population using an unbiased RNA sequencing approach. Therefore, the inventors isolated monocytes from peripheral blood sampled immediately before and 60 minutes (i.e. before rescue glucose application when needed) after ingestion of the mixed-meal on all three treatment days.
Blood samples were taken before and 60 minutes after meal intake. Due to scheduling conflicts, samples from two patients could not be processed. These samples are thus assumed to be missing at random. Of note, samples from patient 3 (sleeve gastrectomy) had already been processed for RNA sequencing before the final change of protocol. Sequencing data obtained from this patient were thus kept for the purpose of these analyses. Peripheral blood mononuclear cells were obtained by Ficoll density gradient centrifugation (Lymphoprep Fresenius Kabi, Norway). For 9 out of 11 patients, an additional step was added after density gradient centrifugation to pre-enrich monocytes by negative selection with CD3 human MicroBeads (#130-050-101; Miltenyi Biotec). The obtained cellular monocyte fractions were then incubated with FC-Block for 15 minutes at room temperature [(Human FcR TruStain FcX (Biolegend) REF 422302, compatible with flow cytometric staining with anti-human CD16 (clone 3G8)], and subsequently labeled with the following antibodies: APC Mouse anti-Human CD3 [HIT3a alpha] (#555342; BD Biosciences), FITC Mouse Anti-Human CD19 [HIB19 RUO] (#560994; BD Biosciences), PE-Cy5 Mouse Anti-Human CD56 [B159 RUO] (#560842; BD Biosciences), PE Mouse Anti-Human CD16 [3G8 RUO] (#560995; BD Biosciences), APC-Cy7 Mouse Anti-Human CD14 [MφP-9 RUO] (#561709; BD Biosciences).
Cells were then further enriched into the three monocyte subsets by fluorescence-activated cell sorting on a BD FACS-Aria III. Classical monocytes were defined as: single, live, CD56− CD19−CD3−CD14+CD16−, Intermediate monocytes were defined as: single, live CD56−CD19− CD3−CD14+CD16+ and non-classical monocytes were defined as: single, live CD56−CD19− CD3−CD14−CD16+. Bulk monocytes were defined as a combination-gate of the three subsets. For a representative example of the gating strategy see FIG. 13.
Total RNA was extracted from 500'000 bulk monocytes, isolated as described above using the Nucleo Spin RNA II Kit (Machery Nagel). Integrity of isolated total RNA was assessed on a 2100 Bioanalyzer System (Agilent Technologies, USA) with the Agilent RNA 6000 Pico Kit as recommended by the manufacturer. RNA concentration was determined with the Quant-iT RiboGreen RNA Assay Kit (Thermo Fisher Scientific, USA).
Purification of mRNA by poly(A)-selection, mRNA fragmentation and cDNA library preparation for RNA-Seq were performed using the TruSeq Stranded mRNA HT Sample Preparation Kit (Illumina, USA) according to the manufacturer's protocol. Before sequencing, quality and quantity analysis of prepared cDNA libraries were done on a Fragment Analyzer System (Advanced Analytical Technologies, USA). cDNA libraries were sequenced as single-end reads with 125 cycles on a HiSeq2500 sequencing system (Illumina, USA) at the Genomics Facility Basel. Of note, 2 samples failed during library preparation.
Initial quality checks were performed with FastQC version 0.11.4 (www.bioinformatics.babraham.ac.uk/projects/fastqc/). Adaptor clipping and quality-trimming of sequences was performed using Trimmomatic version 0.36 (Bolger, A. M., Lohse, M., and Usadel, B. (2014). Bioinformatics 30, 2114-2120) and reads were aligned to the GRCh38 reference genome using the splice aware aligner STAR version 2.7.0 (Dobin, A., et al. (2013). Bioinformatics 29, 15-21). Count-tables were produced using HTSeq version 0.6.1 (Anders, S., Pyl, P. T., and Huber, W. (2015). Bioinformatics 31, 166-169). […]

OC[C@H]1O[C@@H](c2ccc(Cl)c(Cc3ccc(O[C@H]4CCOC4)cc3)c2)[C@H](O)[C@@H](O)[C@@H]1O [empagliflozin]
number of downregulated genes in monocytes: 0
number of upregulated genes in monocytes: 14
total genes differentially regulated in monocytes: 14

anakinra: CAS NO 143090-92-0; recombinant, non-glycosylated form of the human interleukin-1 receptor antagonist (IL-1 Ra), 153 amino acids
number of downregulated genes in monocytes: 71
number of upregulated genes in monocytes: 163
total genes differentially regulated in monocytes: 234
